The numbers were not newly measured in patent publication US20100012894A1, “Tooth Whitening Compositions and Methods” (priority 2008, published 2010), which cites them from elsewhere.

The conditions of this series: at six months; concentrations 16%-18% carbamide peroxide (Brunton et al., 2004).

`NC(N)=O.OO` [carbamide peroxide]: the rebound was 40 % of patients.
